From patent EP2272817A1, “PAI-1 INHIBITOR” (Institute of Medicinal Molecular Design, Inc., priority 2008, dated 2009)
Where two headings read alike, the source gives them in different places.

Molecular target: recombinant human PAI-1 (Homo sapiens, UniProt P05121)
Assay: biochemical
[1] = read-out: Inhibition Rate of PAI-1 Activity (%)
[2] = read-out: Inhibition Rate of PAI Activity (%)
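Also: PAI-1 preincubated with compound, then two-chain tPA added, residual tPA activity read with fluorogenic Pyr-Gly-Arg-MCA substrate after 30 min at room temperature.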

Sequence of recombinant human PAI-1 (P05121 24-402): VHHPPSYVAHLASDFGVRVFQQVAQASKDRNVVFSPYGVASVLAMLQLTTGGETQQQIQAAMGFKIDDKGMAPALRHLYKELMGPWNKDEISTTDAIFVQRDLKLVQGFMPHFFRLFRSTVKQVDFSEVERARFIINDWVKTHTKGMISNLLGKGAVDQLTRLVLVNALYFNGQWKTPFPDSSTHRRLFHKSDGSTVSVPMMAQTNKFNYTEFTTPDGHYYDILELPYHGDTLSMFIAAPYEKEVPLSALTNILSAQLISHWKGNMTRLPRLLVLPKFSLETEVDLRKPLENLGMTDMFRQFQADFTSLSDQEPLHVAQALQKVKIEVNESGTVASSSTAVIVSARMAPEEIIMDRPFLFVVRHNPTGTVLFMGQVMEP

| SMILES | inhibition at 5 µM [1] | inhibition at 10 µM [1] | inhibition at 25 µM [1] | inhibition at 10 µM [2] | inhibition at 25 µM [2] | inhibition at 5 µM [2] | inhibition at 0.5 µM [1] | inhibition at 1 µM [1] |
| --- | --- | --- | --- | --- | --- | --- | --- | --- |
| CC(C)(C)c1ccc(COc2cc(/C=C/C(=O)O)cc(Oc3ccc(OC(F)(F)F)cc3)c2)cc1 [Compound 409] | 26% | 59% | 97% |  |  |  |  |  |
| CC(C)(C)c1ccc(Oc2cc(-c3ccc(OC(F)(F)F)cc3)ccc2/C=C/C(=O)O)cc1 [Compound 79] | 39% | 84% | 90% |  |  |  |  |  |
| O=C(O)CCc1cc(OCc2ccc(OC(F)(F)F)cc2)ccc1OCc1ccc(OC(F)(F)F)cc1 [Compound 404] | 14% | 31% | 84% |  |  |  |  |  |
| CC(C)(C)c1ccc(CN(C(=O)C(=O)O)c2ccc(Cl)c(OCc3ccc(OC(F)(F)F)cc3)c2)cc1 [Compound 629] | 62% | 92% | 88% |  |  |  |  |  |
| CC(C)(C)c1ccc(-c2ccc(N(Cc3ccc(C(F)(F)F)cc3)C(=O)C(=O)O)cc2)cc1 [Compound 205] | 50% | 80% | 98% |  |  |  |  |  |
| CC(C)(C)c1ccc(CN(C(=O)C(=O)O)c2ccc(N3CCCCC3)c(-c3ccc(OC(F)(F)F)cc3)c2)cc1 [Compound 217] | 86% | 84% |  |  |  |  |  |  |
| CC(C)(C)c1ccc(COc2ccc(-c3ccc(OC(F)(F)F)cc3)cc2COCC(=O)O)cc1 [Compound 107] | 48% | 85% | 97% |  |  |  |  |  |
| CC(C)(OCc1ccc(-c2ccc(OC(F)(F)F)cc2)cc1Oc1ccc(C(C)(C)C)cc1)C(=O)O [Compound 111] | 55% | 88% | 94% |  |  |  |  |  |
| Cc1cccc(CN(C(=O)C(=O)O)c2ccc(-c3ccc(OC(F)(F)F)cc3)cc2)c1 [Compound 125] | 15% | 31% |  |  |  |  |  |  |
| CC(C)(C)CN(C(=O)C(=O)O)c1ccc(-c2ccc(OC(F)(F)F)cc2)cc1 [Compound 255] | 2% | 8% | 23% |  |  |  |  |  |
| Cc1ccc(N(Cc2ccc(C(C)(C)C)cc2)C(=O)C(=O)O)cc1OCc1ccc(OC(F)(F)F)cc1 [Compound 625] | 59% | 92% | 91% |  |  |  |  |  |
| CCC(Oc1ccc(-c2ccc(OC(F)(F)F)cc2)cc1Oc1ccc(C(C)(C)C)cc1)C(=O)O (stereo not drawn) [Compound 114] | 64% | 87% | 95% |  |  |  |  |  |
| CC(C)(C)c1ccc(CN(C(=O)C(=O)O)c2ccc(Cl)cc2Oc2ccc(OC(F)(F)F)cc2)cc1 [Compound 191] | 74% | 92% | 87% |  |  |  |  |  |
| CC(C)(C)c1ccc(CN(C(=O)C(=O)O)c2ccc(-c3ccccc3OC(F)(F)F)cc2)cc1 [Compound 201] | 64% | 89% | 82% |  |  |  |  |  |
| CC(C)(C)c1ccc(COc2ccc(-c3ccc(OC(F)(F)F)cc3)cc2OCCCC(=O)O)cc1 [Compound 109] | 24% | 50% | 96% |  |  |  |  |  |
| CCCCCCN(C(=O)C(=O)O)c1ccc(Oc2ccc(OC(F)(F)F)cc2)cc1 [Compound 252] | 3% | 6% | 34% |  |  |  |  |  |
| CC(C)(C)c1ccc(CN(C(=O)C(=O)O)c2ccc(-c3ccc(OC(F)(F)F)cc3)cc2)cc1 [Compound 133] | 80% | 92% |  |  |  |  |  |  |
| CC(C)Oc1ccc(N(CCCc2ccccc2)C(=O)C(=O)O)c(-c2ccc(OC(F)(F)F)cc2)c1 [Compound 239] | 43% | 80% | 98% |  |  |  |  |  |

| SMILES | inhibition at 5 µM [1] | inhibition at 10 µM [1] | inhibition at 25 µM [1] | inhibition at 10 µM [2] | inhibition at 25 µM [2] | inhibition at 5 µM [2] | inhibition at 0.5 µM [1] | inhibition at 1 µM [1] |
| --- | --- | --- | --- | --- | --- | --- | --- | --- |
| O=C(O)C(=O)N(CCCCc1ccccc1)c1ccc(N2CCCCC2=O)c(-c2ccc(OC(F)(F)F)cc2)c1 [Compound 250] | 83% | 78% |  |  |  |  |  |  |
| O=C(O)CCc1cc(-c2ccc(OC(F)(F)F)cc2)ccc1OCc1ccc(F)cc1 [Compound 20] |  |  |  | 10% | 53% |  |  |  |
| CC(C)(C)c1ccc(CN(C(=O)C(=O)O)c2ccc(N3CCOCC3)c(-c3ccc(OC(F)(F)F)cc3)c2)cc1 [Compound 216] | 75% | 88% | 84% |  |  |  |  |  |
| CC(C)(C)c1ccc(CN(C(=O)CCC(=O)O)c2ccc(-c3ccc(OC(F)(F)F)cc3)cc2)cc1 [Compound 609] | 38% | 69% | > 99% |  |  |  |  |  |
| O=C(O)/C=C/c1cc(-c2ccc(OC(F)(F)F)cc2)ccc1OCc1cccc(C(F)(F)F)c1 [Compound 57] |  |  |  | 53% | 82% | 24% |  |  |
| CC(C)(C)c1ccc(Oc2ccc(Oc3ccc(OC(F)(F)F)cc3)cc2/C=C/C(=O)O)cc1 [Compound 99] | 31% | 66% | 99% |  |  |  |  |  |
| O=C(O)C(=O)N(Cc1ccc(Cl)cc1Cl)c1ccc(-c2ccc(OC(F)(F)F)cc2)cc1 [Compound 144] | 3% | 22% | 76% |  |  |  |  |  |
| Cc1cc(C)cc(COc2ccc(-c3ccc(OC(F)(F)F)cc3)cc2CCC(=O)O)c1 [Compound 59] |  |  |  | 53% | 77% | 25% |  |  |
| CC(C)(C)c1ccc(COc2cc(-c3ccc(OC(F)(F)F)cc3)ccc2/C=C/C(=O)O)cc1 [Compound 75] | 25% | 53% | 91% |  |  |  |  |  |
| CC(C)(C)c1ccc(COc2ccc(Oc3ccc(OC(F)(F)F)cc3)cc2/C=C/C(=O)O)cc1 [Compound 95] | 28% | 77% | 96% |  |  |  |  |  |
| CC(C)(C)c1ccc(Oc2cc(-c3ccc(OC(F)(F)F)cc3)ccc2OC(F)C(=O)O)cc1 (stereo not drawn) [Compound 119] | 75% | 93% | 99% |  |  |  |  |  |
| O=C(O)COc1cc(-c2ccc(OC(F)(F)F)cc2)ccc1OCCCCc1ccccc1 [Compound 115] | 34% | 59% | 90% |  |  |  |  |  |
| CC(C)(C)c1ccc(COc2cc(-c3ccc(OC(F)(F)F)cc3)cc(O)c2OCC(=O)O)cc1 [Compound 546] | 61% |  |  |  |  |  | 4% | 14% |
| CCCOc1ccc(N(CCCCc2ccccc2)C(=O)C(=O)O)cc1-c1ccc(OC(F)(F)F)cc1 [Compound 240] | 62% | 91% | 95% |  |  |  |  |  |
| CC(C)(C)c1ccc(N(C(=O)C(=O)O)c2ccc(-c3ccc(OC(F)(F)F)cc3)cc2)cc1 [Compound 128] | 58% | 89% |  |  |  |  |  |  |
| CC(C)(C)c1ccc(CN(C(=O)C(=O)O)c2ccc(Sc3ccc(OC(F)(F)F)cc3)cc2)cc1 [Compound 621] | 67% | 95% | 91% |  |  |  |  |  |
| Cc1c(-c2ccc(OC(F)(F)F)cc2)cccc1N(Cc1ccc(C(C)(C)C)cc1)C(=O)C(=O)O [Compound 177] | 43% | 83% | 91% |  |  |  |  |  |
| O=C(O)/C=C/c1cc(-c2ccc(OC(F)(F)F)cc2)ccc1Oc1ccc(OC(F)(F)F)cc1 [Compound 15] |  |  |  | 47% | 94% | 23% |  |  |
